Source: ChEMBL document CHEMBL5500422, “New Horizons of Synthetic Lethality in Cancer: Current Development and Future Perspectives” (J Med Chem, 2024)
pIC50: −log10 of the molar value. Each block holds one molecule with its values, some of them ahead of it.

Legend:
[1] = Antiproliferative activity against human UWB1289 cells harboring BRCA1 assessed inhibition of cell growth incubated for 48 hrs by MTT assay; format: functional, cell-based; conditions: UWB1289, 48 h
[2] = target: T1, DNA repair protein RAD52 homolog (Homo sapiens, UniProt P43351); experiment: Inhibition of RAD52 (unknown origin) by FRET analysis
T1 sequence (P43351 whole entry): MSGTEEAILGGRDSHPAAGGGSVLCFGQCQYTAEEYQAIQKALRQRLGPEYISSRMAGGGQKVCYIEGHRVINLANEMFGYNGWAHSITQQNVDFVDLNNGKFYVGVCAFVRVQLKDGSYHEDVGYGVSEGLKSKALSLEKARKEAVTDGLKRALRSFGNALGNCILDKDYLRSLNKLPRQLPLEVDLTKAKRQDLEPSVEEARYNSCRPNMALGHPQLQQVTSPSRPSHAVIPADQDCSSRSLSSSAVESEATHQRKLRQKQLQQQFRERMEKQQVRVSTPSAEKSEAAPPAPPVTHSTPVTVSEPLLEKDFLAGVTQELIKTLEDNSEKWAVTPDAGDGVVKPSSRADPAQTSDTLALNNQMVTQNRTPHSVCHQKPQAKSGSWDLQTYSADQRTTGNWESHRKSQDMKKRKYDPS

[3] = target: von Hippel-Lindau disease tumor suppressor/SWI/SNF-related matrix-associated actin-dependent regulator of chromatin subfamily A member 2 (Homo sapiens) (UniProt P51531+P40337); experiment: PROTAC activity at VHL/SMARCA2 in human NCI-H838 cells assessed as induction of SMARCA2 degradation at 0.001 to 1000 nM incubated for 24 hrs by Western blotting analysis relative to control; format: cell-based; conditions: dose 0.001-1000 nM
[4] = target: von Hippel-Lindau disease tumor suppressor/SWI/SNF-related matrix-associated actin-dependent regulator of chromatin subfamily A member 4 (Homo sapiens) (UniProt P51532+P40337); experiment: PROTAC activity at VHL/SMARCA4 in human MV4-11 cells assessed as induction of SMARCA4 degradation by measuring maximal efficacy incubated for 18 hrs by Western blotting analysis relative to control; format: cell-based
[5] = target: T2, Ubiquitin carboxyl-terminal hydrolase 1 (Homo sapiens, UniProt O94782); experiment: Inhibition of human recombinant USP1 expressed in baculovirus expressed in Bac-to-Bac baculovirus expression system
T2 sequence (O94782 whole entry): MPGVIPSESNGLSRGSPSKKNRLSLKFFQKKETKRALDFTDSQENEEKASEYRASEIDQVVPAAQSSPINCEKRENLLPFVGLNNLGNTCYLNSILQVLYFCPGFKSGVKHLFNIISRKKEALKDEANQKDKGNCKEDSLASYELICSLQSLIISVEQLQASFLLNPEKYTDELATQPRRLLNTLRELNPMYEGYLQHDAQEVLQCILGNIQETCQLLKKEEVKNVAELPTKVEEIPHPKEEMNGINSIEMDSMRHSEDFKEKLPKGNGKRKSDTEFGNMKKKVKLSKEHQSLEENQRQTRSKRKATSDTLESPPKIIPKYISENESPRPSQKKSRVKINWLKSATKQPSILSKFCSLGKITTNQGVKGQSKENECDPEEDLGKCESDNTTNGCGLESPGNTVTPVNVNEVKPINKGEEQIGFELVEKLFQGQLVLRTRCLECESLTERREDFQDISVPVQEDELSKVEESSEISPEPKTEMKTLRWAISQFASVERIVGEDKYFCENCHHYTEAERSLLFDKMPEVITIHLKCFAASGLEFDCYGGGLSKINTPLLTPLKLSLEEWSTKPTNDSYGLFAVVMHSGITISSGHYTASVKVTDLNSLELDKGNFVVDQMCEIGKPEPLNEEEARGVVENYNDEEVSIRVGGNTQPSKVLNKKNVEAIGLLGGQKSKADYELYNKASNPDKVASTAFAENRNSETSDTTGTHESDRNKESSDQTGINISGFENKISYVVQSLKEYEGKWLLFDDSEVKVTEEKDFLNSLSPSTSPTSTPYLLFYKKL

[6] = Intrinsic clearance in human liver microsomes; format: ADME, Microsome
[7] = target: DNA-dependent protein kinase catalytic subunit (Homo sapiens, UniProt P78527)
Description: Inhibition of DNA-PK in human HCT-116 cells measured after 1 hr by Bradford assay

[8] = tested on: HEK293; experiment: Antiproliferative activity against HEK293 cells assessed as inhibition of cell growth incubated for 48 hrs by CCK8 assay; format: functional, cell-based; conditions: Homo sapiens, HEK293, 48 h
[9] = tested on: LoVo; experiment: Antiproliferative activity against human LoVo cells assessed as reduction in cell viability measured for 48 hrs byT assay; format: functional, cell-based
[10] = Intrinsic clearance in mouse liver microsomes; format: ADME, Microsome

Chain of DNA-dependent protein kinase catalytic subunit (P78527 whole entry): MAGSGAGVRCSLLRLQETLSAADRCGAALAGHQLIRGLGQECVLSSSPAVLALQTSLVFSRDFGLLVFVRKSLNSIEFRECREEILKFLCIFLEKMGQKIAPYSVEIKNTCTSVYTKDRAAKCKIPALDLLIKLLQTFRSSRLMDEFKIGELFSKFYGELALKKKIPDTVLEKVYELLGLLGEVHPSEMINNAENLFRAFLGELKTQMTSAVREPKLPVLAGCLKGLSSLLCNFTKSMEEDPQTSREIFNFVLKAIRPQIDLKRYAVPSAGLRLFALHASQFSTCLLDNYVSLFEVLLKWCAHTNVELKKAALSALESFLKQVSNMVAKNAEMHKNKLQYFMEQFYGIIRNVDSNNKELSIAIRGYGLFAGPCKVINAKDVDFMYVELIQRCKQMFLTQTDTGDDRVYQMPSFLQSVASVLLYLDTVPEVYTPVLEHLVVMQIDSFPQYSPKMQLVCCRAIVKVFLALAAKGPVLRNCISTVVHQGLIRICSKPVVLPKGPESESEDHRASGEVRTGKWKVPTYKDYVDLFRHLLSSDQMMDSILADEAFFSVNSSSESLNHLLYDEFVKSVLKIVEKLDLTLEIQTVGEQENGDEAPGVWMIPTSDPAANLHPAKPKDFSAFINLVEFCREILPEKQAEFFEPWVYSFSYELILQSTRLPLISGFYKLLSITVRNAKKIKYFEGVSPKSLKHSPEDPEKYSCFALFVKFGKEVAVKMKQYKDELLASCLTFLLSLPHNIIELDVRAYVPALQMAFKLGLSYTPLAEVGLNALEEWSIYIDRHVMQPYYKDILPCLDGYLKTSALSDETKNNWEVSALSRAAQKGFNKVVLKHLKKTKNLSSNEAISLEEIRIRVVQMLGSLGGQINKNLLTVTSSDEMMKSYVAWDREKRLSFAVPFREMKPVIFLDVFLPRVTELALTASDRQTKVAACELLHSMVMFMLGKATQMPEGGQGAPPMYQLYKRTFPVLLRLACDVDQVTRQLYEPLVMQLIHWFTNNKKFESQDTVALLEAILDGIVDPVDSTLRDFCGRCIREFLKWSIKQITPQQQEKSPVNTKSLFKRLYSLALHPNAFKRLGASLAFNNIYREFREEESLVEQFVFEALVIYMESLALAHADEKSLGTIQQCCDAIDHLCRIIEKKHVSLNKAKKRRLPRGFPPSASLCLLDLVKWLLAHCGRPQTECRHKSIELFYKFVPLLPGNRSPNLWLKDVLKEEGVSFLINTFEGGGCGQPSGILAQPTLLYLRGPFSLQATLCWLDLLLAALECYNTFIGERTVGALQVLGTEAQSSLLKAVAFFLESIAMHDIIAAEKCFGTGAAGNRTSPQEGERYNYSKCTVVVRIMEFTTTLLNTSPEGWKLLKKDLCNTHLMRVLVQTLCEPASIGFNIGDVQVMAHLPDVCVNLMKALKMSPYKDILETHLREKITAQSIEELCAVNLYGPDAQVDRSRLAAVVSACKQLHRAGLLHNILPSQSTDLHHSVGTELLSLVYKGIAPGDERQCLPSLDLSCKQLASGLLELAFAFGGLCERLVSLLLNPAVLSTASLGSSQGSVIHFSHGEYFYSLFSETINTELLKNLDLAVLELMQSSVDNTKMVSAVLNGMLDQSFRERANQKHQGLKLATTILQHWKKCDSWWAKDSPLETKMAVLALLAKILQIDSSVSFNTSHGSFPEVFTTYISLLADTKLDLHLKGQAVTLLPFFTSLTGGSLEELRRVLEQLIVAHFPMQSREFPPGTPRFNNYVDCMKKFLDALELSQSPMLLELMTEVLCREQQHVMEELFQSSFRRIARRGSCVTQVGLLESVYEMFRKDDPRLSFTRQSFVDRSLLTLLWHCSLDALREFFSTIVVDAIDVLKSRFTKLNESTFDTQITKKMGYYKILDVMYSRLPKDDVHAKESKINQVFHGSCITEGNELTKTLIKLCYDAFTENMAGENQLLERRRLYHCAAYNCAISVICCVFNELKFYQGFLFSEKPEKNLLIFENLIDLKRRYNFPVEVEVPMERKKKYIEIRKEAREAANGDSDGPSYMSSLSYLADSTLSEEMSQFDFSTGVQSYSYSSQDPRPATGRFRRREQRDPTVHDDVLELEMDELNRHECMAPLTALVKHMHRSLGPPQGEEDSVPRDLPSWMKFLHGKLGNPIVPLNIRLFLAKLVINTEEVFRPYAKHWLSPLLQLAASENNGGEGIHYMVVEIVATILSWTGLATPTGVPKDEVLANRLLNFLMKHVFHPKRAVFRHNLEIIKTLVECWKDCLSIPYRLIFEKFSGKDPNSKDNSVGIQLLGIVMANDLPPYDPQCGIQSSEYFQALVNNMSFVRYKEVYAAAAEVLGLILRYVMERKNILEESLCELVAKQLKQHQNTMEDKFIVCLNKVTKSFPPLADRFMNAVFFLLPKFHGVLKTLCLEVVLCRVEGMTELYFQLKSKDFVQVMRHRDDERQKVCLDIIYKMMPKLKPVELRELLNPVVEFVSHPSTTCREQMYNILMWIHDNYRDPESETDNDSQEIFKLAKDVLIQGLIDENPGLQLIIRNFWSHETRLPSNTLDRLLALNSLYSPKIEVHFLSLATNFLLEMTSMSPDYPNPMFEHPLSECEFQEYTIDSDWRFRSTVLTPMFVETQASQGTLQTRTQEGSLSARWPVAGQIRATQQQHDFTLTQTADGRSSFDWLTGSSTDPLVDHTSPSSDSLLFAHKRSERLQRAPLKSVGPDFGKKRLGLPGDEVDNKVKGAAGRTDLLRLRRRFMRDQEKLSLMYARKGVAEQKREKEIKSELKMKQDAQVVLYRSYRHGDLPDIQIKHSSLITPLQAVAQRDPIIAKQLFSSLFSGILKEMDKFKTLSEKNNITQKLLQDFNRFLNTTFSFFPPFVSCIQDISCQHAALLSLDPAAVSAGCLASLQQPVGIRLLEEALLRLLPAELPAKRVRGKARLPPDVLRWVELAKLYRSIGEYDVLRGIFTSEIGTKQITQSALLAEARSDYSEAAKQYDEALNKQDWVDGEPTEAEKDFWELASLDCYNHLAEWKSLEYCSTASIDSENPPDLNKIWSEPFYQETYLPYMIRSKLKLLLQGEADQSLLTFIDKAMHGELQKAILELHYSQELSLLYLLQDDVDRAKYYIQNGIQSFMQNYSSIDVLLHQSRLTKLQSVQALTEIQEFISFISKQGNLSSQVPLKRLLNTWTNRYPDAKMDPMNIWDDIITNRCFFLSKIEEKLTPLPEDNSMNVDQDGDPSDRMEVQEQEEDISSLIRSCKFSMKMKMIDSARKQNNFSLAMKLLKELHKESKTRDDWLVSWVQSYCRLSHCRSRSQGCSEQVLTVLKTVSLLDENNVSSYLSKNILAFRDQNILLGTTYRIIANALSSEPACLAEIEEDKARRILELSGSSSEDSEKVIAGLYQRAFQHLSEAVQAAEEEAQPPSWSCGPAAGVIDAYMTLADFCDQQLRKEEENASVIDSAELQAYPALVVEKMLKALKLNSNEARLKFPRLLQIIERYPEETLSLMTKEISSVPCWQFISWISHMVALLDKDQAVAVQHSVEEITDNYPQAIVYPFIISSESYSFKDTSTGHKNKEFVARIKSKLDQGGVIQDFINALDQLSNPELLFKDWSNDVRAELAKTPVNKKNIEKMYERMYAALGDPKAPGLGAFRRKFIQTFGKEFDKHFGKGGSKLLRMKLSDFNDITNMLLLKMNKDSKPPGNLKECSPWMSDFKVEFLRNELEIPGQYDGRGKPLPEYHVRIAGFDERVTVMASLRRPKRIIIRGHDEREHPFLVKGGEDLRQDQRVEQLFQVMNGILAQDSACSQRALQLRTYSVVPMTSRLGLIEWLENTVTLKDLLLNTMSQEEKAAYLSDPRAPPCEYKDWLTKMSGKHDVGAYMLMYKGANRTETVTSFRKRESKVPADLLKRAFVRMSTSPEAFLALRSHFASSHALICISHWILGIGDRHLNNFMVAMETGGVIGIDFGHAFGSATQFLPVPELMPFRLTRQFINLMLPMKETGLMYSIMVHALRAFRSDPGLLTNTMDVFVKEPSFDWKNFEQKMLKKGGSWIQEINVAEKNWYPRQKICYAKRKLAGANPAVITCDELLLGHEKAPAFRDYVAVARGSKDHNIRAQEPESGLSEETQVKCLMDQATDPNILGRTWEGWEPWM

SMILES: Cc1cccc(N(C)C(=O)[C@@H]2[C@H](O)CCN2c2nc(C)cc(C(F)(F)F)c2C#N)c1
- pIC50 [1]: 8.10

SMILES: O=C(Cn1cccc([N+](=O)[O-])c1=O)c1c[nH]c2ccccc12
- pIC50 [2]: 5.70

SMILES: C[C@@H]1COCCN1c1cc(N=[S@@](C)(=O)C2CC2)nc(-c2ccnc(N)c2)n1
- pIC50 [8]: 5.10

SMILES: Nc1nn2cc(F)cnc2c1C(=O)Nc1cncc(F)c1N1CCC(C(=O)N2CCN(C3COC3)CC2)CC1 [M4344]
- pIC50 [9]: 7.07

Now from value to molecule:

- pIC50 [2]: 5.70
SMILES: COc1ccccc1NS(=O)(=O)c1cc(C(=O)O)ccc1C

- Emax [3]: 81%
- Emax [4]: 67%
SMILES: Cc1ncsc1-c1ccc([C@H](CC[C@H](C)CCN2CCC(c3ccc4c(c3)n(C3CCCC3)c3nc(=O)c5c(Br)cccc5n43)CC2)NC(=O)[C@@H]2C[C@@H](O)CN2C(=O)[C@@H](NC(=O)C2(F)CC2)C(C)(C)C)cc1

- pIC50 [5]: 8.39
SMILES: CC(C)c1ccccc1-c1ncc2[nH]c(=O)n(Cc3ccc(-c4nc(C(F)(F)F)cn4C)cc3)c2n1

- CLH [6]: 78 µL/min/mg
SMILES: Cc1ncc(Cn2c(=O)c3cc(S(=O)(=O)NC4(C)CC4)ccc3n(CC3CC3)c2=O)s1

- pIC50 [7]: 9.05
SMILES: CC(C)NCCOc1ncc(-c2cc3c4c(cnc3cc2F)N(C)C(=O)C42CCC2)cc1NS(C)(=O)=O

- CLH [10]: 211 µL/min/mg
SMILES: Cn1c(=O)c2cc(S(=O)(=O)NC3(C)CC3)ccc2n(C)c1=O
